The subject of one data set is NCI-H460 cells. Nature of the data set: nude mouse transplanted with NCI-H460 cells, tumor growth inhibition. Format: in vivo. Conditions: salt form, 50 mg/kg once a day, 27 days. How it is done:
A nude mouse transplanted with NCI-H460 cells (human-derived lung cancer cell line) was administered with the […], through intra-abdominal cavity and intra-subcutaneous injection. Then, a growth inhibiting effect of a tumor was tested. Mice were divided into three groups such as a negative control group, and groups administered with a test material in doses of 50 and 100 mg/kg. Each group included 10 mice. The negative control group was administered with a mixture solution containing DMSO (excipient), Tween80, PEG400, and injection water, and the groups administered with the test material in doses of 50 mg/kg were administered with the inventive compound once a day, for 27 days including an autopsy day, 28 times in total (4 times for intra-abdominal cavity injection and 24 times for intra-subcutaneous injection.
During the observation period, general symptoms were observed once a day, and the body weight of an animal and the volume of a tumor were measured twice a week. On the day before autopsy, all individuals were fasted for 18 hours or more. On the day of autopsy, 0.5, 1 and 2 hours 1 after the test material was administered, from 3 mice, 3 mice and 4 mice from respective groups, blood was collected and tumor was extracted.
The collected blood was placed in an EDTA-containing tube, and centrifuged to separate plasma. The extracted tumor was weighed. Half of the plasma and the tumor were rapidly frozen by liquid nitrogen and placed in a frozen state, and the rest were fixed with 10% neutral buffered formalin solution and sent to a test client.

Data set [1] concerns NCI-H460. As to the kind of experiment: FACS assay of apoptosis in NCI-H460. In kind it is cell-based, human. Conditions: medium containing 2% FBS; FIG. 7. On the procedure: Lung cancer cell line, NCI-H460, was cultured in RPMI (HyQ RPMI-1640, Hyclone) of streptomycin, containing 10% fetal bovine serum, and 1% penicillin. In order to investigate the effect of the inventive compound on a cell cycle, cells were treated with the inventive compound and cultured in medium containing 2% FBS. The cells were collected and subjected to FACS assay.
In general terms: In flow cytometry, cells or beads pass a laser one at a time.

Data set [2] has as its system NCI-H460. As to the kind of experiment: MTT assay on lung cancer cell line NCI-H460. Format: cell-based, human. Conditions: 0.04 uM, 0.4 uM and 4 uM; 24, 48 and 72 hours; serum free RPMI; FIG. 6. How it is done:
Lung cancer cell line, NCI-H460, was cultured in RPMI (HyQ RPMI-1640, Hyclone) medium of streptomycin, containing 10% fetal bovine serum and 1% penicillin for 48 hours, and transferred to a 96-well plate. 12 hours later, the medium was replaced by serum free RPMI medium, and then the cell line was treated with the compound of Formula 1 at a concentration of 0.04 uM, 0.4 uM and 4 uM. 24 hours, 48 hours, and 72 hours later, MTT assay at each concentration was performed.

The next data set has as its system WI-26 cells. Nature of the data set: MTT assay on normal WI-26 cells (cytotoxicity). In kind it is cell-based. Conditions: MTT assay after 48 hours; data not shown. On the procedure: As a result, 22 compounds were primarily screened. Normal cells, that is, WI-26 cells were treated with the 22 compounds.
Background: Formazan colour is commonly taken as a measure of viable cells.

Data set [3] has as its target T1, AIMP2-DX2 (Homo sapiens, UniProt Q13155).
T1 sequence (Q13155 1-251 isoform Q13155-2): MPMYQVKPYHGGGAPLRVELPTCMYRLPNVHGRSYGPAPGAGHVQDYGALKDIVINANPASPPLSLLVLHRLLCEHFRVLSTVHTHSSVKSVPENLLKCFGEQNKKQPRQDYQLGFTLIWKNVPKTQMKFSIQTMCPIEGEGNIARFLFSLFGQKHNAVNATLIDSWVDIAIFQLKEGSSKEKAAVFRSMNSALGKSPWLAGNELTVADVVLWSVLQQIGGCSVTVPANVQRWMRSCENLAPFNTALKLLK
Nature of the data set: luciferase assay of pGL-DX-2 transfected A549 cells. The note with it: luciferase activity 4 hours after compound treatment; N.C (DMSO) 20089; lower = inhibition.

Data set [4] concerns the target T1, AIMP2-DX2. As to the kind of experiment: luciferase assay of pGL-DX-2 transfected H460 cells. Conditions: luciferase activity 4 hours after compound treatment; N.C (DMSO) 8627; lower = inhibition.
Protocol: In order to screen for a compound specifically inhibiting the activity of AIMP2-DX2, from a compound library bought from ChemDive (US), the inventors' transfected lung cancer cell line, H460, with pGL2-DX2 (see FIG. 2). After culturing the cell line for 24 hours, they treated it with a compound. Then, after further culturing for 4 hours, luciferase activity was measured through a luciferase assay kit according to a manufacturer protocol (Promega, US), by using a luminometer.
After further culturing for 4 hours, luciferase activity was measured.

This note sets out measurements from patent publication US20140142333A1, “NOVEL ANILINE DERIVATIVES AND USE THEREOF” (NEOMICS Co, Ltd., priority 2011, published 2014).

Structures are written as SMILES.

As to `CCOC(=O)CC(=O)Nc1ccc(C(=O)O)cc1` [P.C], the “body weight of mouse vs control group” value in the data set on NCI-H460 cells (FIG. 10) is given as “no difference”. The “tumors observed (photograph) vs control group” value in the data set with NCI-H460 cells (FIG. 12) is reported as “visibly significantly reduced”. In addition, in the data set on NCI-H460 cells (at autopsy, FIG. 11), the “weight of tumor vs control group” value is recorded as “significantly reduced”. In the data set with NCI-H460 cells (intra-abdominal and subcutaneous injection, FIG. 9), the “volume of the tumor vs control group” value is listed as “significantly reduced”. In addition, in the data set with NCI-H460 [1], the “apoptosis rate of cancer cells (FACS)” value was “concentration-dependently improves apoptosis rate”. Moreover, in the data set on NCI-H460 [2], the “cell death of lung cancer cells (MTT)” value is “cell death depending on treating time and concentration”. Also, the “cytotoxicity in normal WI-26 cells” value with WI-26 cells is “no cytotoxicity”.
As for `CCCCc1cccc(NC(=O)/C=C\C(=O)Nc2ccc(C)c(C)c2)c1` [compound 16, N1-(3-butylphenyl)-N4-(3,4-dimethylphenyl)maleamide], on AIMP2-DX2 [3], the “AIMP2-DX2 activity in A549 cells” value came to 6871. In addition, the “AIMP2-DX2 activity in H460 cells” value on AIMP2-DX2 [4] amounted to 7511.
Regarding `Cc1ccc(NC(=O)/C=C\C(=O)Nc2ccc(Br)cc2)cc1C` [compound 17, N1-(4-bromophenyl)-N4-(3,4-dimethylphenyl)maleamide], the “AIMP2-DX2 activity in A549 cells” value at AIMP2-DX2 [3] was determined as 6975. In addition, on AIMP2-DX2 [4], the “AIMP2-DX2 activity in H460 cells” value amounted to 5718.
For `COc1cccc(NC(=O)/C=C\C(=O)Nc2ccc(F)cc2)c1` [compound 18, N1-(4-fluorophenyl)-N4-(3-methoxyphenyl)maleamide] the same measures were 4239 and 3246.
For `CCc1cccc(NC(=O)/C=C\C(=O)Nc2ccc(F)cc2)c1` [compound 19, N1-(3-ethylphenyl)-N4-(4-fluorophenyl)maleamide] the same measures were 3978 and 3715.
For `Cc1ccc(NC(=O)/C=C\C(=O)O)cc1F` [compound 20, (Z)-4-[(3-fluoro-4-methylphenyl)amino]-4-oxobut-2-enoic acid] the same measures were 6446 and 7639.
Take `O=C(/C=C/C(=O)Nc1cc(Cl)cc(Cl)c1)Nc1cc(Cl)cc(Cl)c1` [compound 21, N1,N4-bis(3,5-dichlorophenyl)fumaramide]: on AIMP2-DX2 [3], the “AIMP2-DX2 activity in A549 cells” value was found to be 7285. Further, the “AIMP2-DX2 activity in H460 cells” value at AIMP2-DX2 [4] is recorded as 6061.
As for `O=C(/C=C/C(=O)Nc1ccc(Br)cc1)Nc1ccc(Br)cc1` [compound 22, N1,N4-bis(4-bromophenyl) fumaramide], the “AIMP2-DX2 activity in A549 cells” value at AIMP2-DX2 [3] worked out at 5647. For the same compound, the “AIMP2-DX2 activity in H460 cells” value on AIMP2-DX2 [4] is 6377.
For `O=C(/C=C/C(=O)Nc1ccc(Cl)c(Cl)c1)Nc1ccc(Cl)c(Cl)c1` [compound 23, N1,N4-bis(3,4-dichlorophenyl)fumaramide] the same measures were 5352 and 6391.
Turning to `Cc1ccc(NC(=O)/C=C/C(=O)Nc2ccc(C)c(F)c2)cc1F` [compound 24, N1,N4-bis(3-fluoro-4-methylphenyl)fumaramide], the “AIMP2-DX2 activity in A549 cells” value on AIMP2-DX2 [3] is given as 5812. In addition, the “AIMP2-DX2 activity in H460 cells” value at AIMP2-DX2 [4] is given as 7094.
For `COc1ccc(NC(=O)/C=C\C(=O)Nc2ccc(OC)cc2)cc1` [compound 25, N1,N4-bis(4-methoxyphenyl) maleamide] the same measures were 5152 and 6085.
`Cc1ccc(NC(=O)/C=C\C(=O)Nc2ccc(F)cc2)cc1F` [compound 26, N1-(3-fluoro-4-methylphenyl)-N4-(4-fluorophenyl)maleamide]: the “AIMP2-DX2 activity in A549 cells” value on AIMP2-DX2 [3] was 6525. Also, on AIMP2-DX2 [4], the “AIMP2-DX2 activity in H460 cells” value worked out at 6428.
As to `Cc1cc(F)ccc1NC(=O)/C=C\C(=O)Nc1ccc(F)cc1C` [compound 27, N1,N4-bis(4-fluoro-2-methylphenyl)maleamide], the “AIMP2-DX2 activity in A549 cells” value at AIMP2-DX2 [3] is given as 5586. Also, the “AIMP2-DX2 activity in H460 cells” value at AIMP2-DX2 [4] came to 6029.
Consider `COc1cccc(NC(=O)C(C)C(=O)Nc2cc(C)ccc2C)c1` (stereo not shown) [compound 28, N1-(2,5-dimethylphenyl)-N3-(3-methoxyphenyl)-2-methylmalonamide], for which the “AIMP2-DX2 activity in A549 cells” value at AIMP2-DX2 [3] is 6691. Besides, the “AIMP2-DX2 activity in H460 cells” value on AIMP2-DX2 [4] is 7722.
For `Cc1cccc(NC(=O)/C=C\C(=O)Nc2ccc(F)cc2)c1` [compound 29, N1-(4-fluorophenyl)-N4-(m-tolyl)maleamide], the “AIMP2-DX2 activity in A549 cells” value at AIMP2-DX2 [3] stood at 5662. For the same compound, the “AIMP2-DX2 activity in H460 cells” value on AIMP2-DX2 [4] was 5916.
As to `COc1cccc(NC(=O)C(C)C(=O)Nc2cc(C)cc(C)c2)c1` (stereo not shown) [compound 30, N1-(3,5-dimethylphenyl)-N3-(3-methoxyphenyl)-2-methylmalonamide], at AIMP2-DX2 [3], the “AIMP2-DX2 activity in A549 cells” value stood at 7291. The “AIMP2-DX2 activity in H460 cells” value on AIMP2-DX2 [4] was 7167.
In the case of `CCOC(=O)C(C)C(=O)Nc1ccc2cc3ccccc3cc2c1` (stereo not shown) [compound 31, ethyl 3-(anthracen-2-ylamino)-2-methyl-3-oxopropanoate], at AIMP2-DX2 [3], the “AIMP2-DX2 activity in A549 cells” value turned out to be 5771. Further, the “AIMP2-DX2 activity in H460 cells” value on AIMP2-DX2 [4] is 6346.
`CCOC(=O)CC(=O)Nc1ccc(O)cc1Cl` [compound 32, ethyl 3-[(2-chloro-4-hydroxyphenyl)amino]-3-oxopropanoate]: the “AIMP2-DX2 activity in A549 cells” value at AIMP2-DX2 [3] is recorded as 19889. The “AIMP2-DX2 activity in H460 cells” value on AIMP2-DX2 [4] stood at 4848.
Take `CCOC(=O)C(C)C(=O)Nc1ccc(O)cc1Cl` (stereo not shown) [compound 33, ethyl 3-[(2-chloro-4-hydroxyphenyl)amino]-2-methyl-3-oxopropanoate]: on AIMP2-DX2 [3], the “AIMP2-DX2 activity in A549 cells” value is 18631. Moreover, on AIMP2-DX2 [4], the “AIMP2-DX2 activity in H460 cells” value amounted to 5403.
